We go through 38 compounds from patent publication US9688695B2, “Imidazothiadiazole and imidazopyrazine derivatives as protease activated receptor 4 (PAR4) inhibitors for treating platelet aggregation” (BRISTOL-MYERS SQUIBB COMPANY, priority 2012, dated 2017).

Usually EC50 stands for the concentration that produces a half-maximal response.

Each structure is given as a SMILES string.

The experiment deals with PAR4 (Homo sapiens (Human), UniProt Q96RI0). Kind of experiment: FLIPR assay in PAR4-expressing HEK293 cells (PAR4 antagonist activity, calcium mobilization). It counts as cell-based. As to conditions: H-Ala-Phe(4-F)-Pro-Gly-Trp-Leu-Val-Lys-Asn-Gly-NH2-induced calcium mobilization. The text has this: The FLIPR assay is an exemplary in vitro assay for measuring the activity of the PAR4 antagonists of the present invention. In this assay, intracellular calcium mobilization is induced in PAR4 expressing cells by a PAR4 agonist and calcium mobilization is monitored. See, e.g., Example A.
PAR4, sequence (Q96RI0 18-385): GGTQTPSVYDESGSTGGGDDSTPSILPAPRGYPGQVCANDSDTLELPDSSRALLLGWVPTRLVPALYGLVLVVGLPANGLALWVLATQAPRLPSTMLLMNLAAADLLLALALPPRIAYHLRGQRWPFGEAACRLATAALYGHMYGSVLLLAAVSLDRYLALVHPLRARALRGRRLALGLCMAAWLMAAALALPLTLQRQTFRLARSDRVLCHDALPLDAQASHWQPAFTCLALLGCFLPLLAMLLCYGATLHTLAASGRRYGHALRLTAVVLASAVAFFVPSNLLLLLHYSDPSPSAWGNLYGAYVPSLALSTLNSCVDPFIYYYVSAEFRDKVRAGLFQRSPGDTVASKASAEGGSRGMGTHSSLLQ
HEK293 cells stably expressing PAR4 were generated by a standard method of transfection of human […] cDNA expression vector or by RAGE technology from Athersys Inc. (Cleveland, Ohio) and selected based on PAR4 protein expression of mRNA expression. […] These cells express endogenous PAR1 and can elicit calcium signal upon stimulation with PAR1 agonist peptide.
Counter screens for agonist activity and PAR1 antagonist activity were also performed. Briefly, HEK293 EBNA PAR4 clone 20664.1J cells were plated 24 hrs. prior to experiment in 384 well, Poly-D-Lysine coated, black, clear bottom plates (Greiner Bio-One, Monroe, N.C.). Cells were plated at 20,000 cells/well in […] growth medium and incubated at 37° C. with 5% CO2 overnight. At time of assay, media was replaced with 40 μl 1× Hank's Buffered Saline Solution (HBSS) (with 10 mM HEPES) and 20 μl test compound also diluted in 1×HBSS buffer was added at various concentrations and 0.67% DMSO final concentration on the FDSS for agonist measurement. The cells were then incubated for 30 minutes at room temperature followed by addition of 20 μl of agonist peptide for antagonist measurement on the FDSS.
As indicated above, the FLIPR assay, an in vitro assay, measures the PAR4 antagonist activity of compounds tested as described in Example A. The PRP assay, an in vitro assay, measures the PAR4 antagonist assay of the compounds tested in the presence of plasma proteins and thrombin agonist as described in Example C.
In general terms: A change in cytosolic calcium serves as a functional read-out for many receptors and channels.

For the compound `COc1cc(OCc2csc(-c3ccc(C#N)cc3)n2)c2cc(-c3cn4nc(OC)sc4n3)oc2c1` [Example 64], the EC50 is 2.3 nM.

Regarding `COc1cc(OCc2csc(C3CCN(S(=O)(=O)C(F)(F)F)CC3)n2)c2cc(-c3cn4nc(OC)sc4n3)oc2c1` [Example 114, 2-Methoxy-6-(6-methoxy-4-((2-(1-((trifluoromethyl)sulfonyl)piperidin-4-yl)thiazol-4-yl)methoxy)benzofuran-2-yl)imidazo[2,1-b][1,3,4]thiadiazole], the EC50 stood at 0.49 nM.

With `CCCN(CC)C(=O)c1ccc(-c2nc(COc3cc(OC)cc4oc(-c5cn6nc(OC)sc6n5)cc34)cs2)cc1` [Example 309], the EC50 turned out to be 0.54 nM.

For the compound `COc1cc(OCc2csc(C3(c4ccc(Cl)cc4)CCOCC3)n2)c2cc(-c3cn4nc(OC)sc4n3)oc2c1` [Example 154, 6-(4-((2-(4-(4-Chlorophenyl)tetrahydro-2H-pyran-4-yl)thiazol-4-yl)methoxy)-6-methoxybenzofuran-2-yl)-2-methoxyimidazo[2,1-b][1,3,4]thiadiazole], the EC50 worked out at 1.1 nM.

Regarding `COc1cc(OCc2csc(-c3ccc(C(=O)N(C)CCO)cc3)n2)c2cc(-c3cn4nc(OC)sc4n3)oc2c1` [Example 300], the EC50 was 0.42 nM.

For `COc1cc(OCc2csc(C3(F)CC(C)OC(C)C3)n2)c2cc(-c3cn4nc([C@H](C)F)sc4n3)oc2c1` (stereo partly drawn) [Example 199, 6-(4-((2-(4-Fluoro-2,6-dimethyltetrahydro-2H-pyran-4-yl)thiazol-4-yl)methoxy)-6-methoxybenzofuran-2-yl)-2-((S)-1-fluoroethyl)imidazo[2,1-b][1,3,4]thiadiazole], the EC50 was determined as 1.1 nM.

Regarding `COc1cc(OCc2csc(C3(c4ccc(Br)cc4)CCOCC3)n2)c2cc(-c3cn4nc(OC)sc4n3)oc2c1` [Example 153, 6-(4-((2-(4-(4-Bromophenyl)tetrahydro-2H-pyran-4-yl)thiazol-4-yl)methoxy)-6-methoxybenzofuran-2-yl)-2-methoxyimidazo[2,1-b][1,3,4]thiadiazole], the EC50 came to 1.7 nM.

Turning to `COc1cc(OCc2csc(C3CCOc4ccccc43)n2)c2cc(-c3cn4nc(OC)sc4n3)oc2c1` (centres unmarked) [Example 168, 6-(4-((2-(Chroman-4-yl)thiazol-4-yl)methoxy)-6-methoxybenzofuran-2-yl)-2-methoxyimidazo[2,1-b][1,3,4]thiadiazole], the concentration giving a half-maximal response (EC50) was determined as 0.28 nM.

On to `COc1cc(OCc2csc(C3=CCC(C(=O)OC(C)(C)C)CC3)n2)c2cc(-c3cn4nc(OC)sc4n3)oc2c1` (centres unmarked) [Example 148, tert-Butyl 4-(4-(((6-methoxy-2-(2-methoxyimidazo[2,1-b][1,3,4]thiadiazol-6-yl)benzofuran-4-yl)oxy)methyl)thiazol-2-yl)cyclohex-3-enecarboxylate], for which the EC50 was 0.37 nM.

For `COCCNc1nc(COc2cc(OC)cc3oc(-c4cn5nc(C)ccc5n4)cc23)cs1` [Example 251], the EC50 came to 11 nM.

Turning to `COc1nn2cc(-c3cc4c(OCc5csc(-c6ccc(Cl)cc6)n5)cc(Cl)cc4o3)nc2s1` [Example 188, 6-(6-Chloro-4-((2-(4-chlorophenyl)thiazol-4-yl)methoxy)benzofuran-2-yl)-2-methoxyimidazo[2,1-b][1,3,4]thiadiazole], the concentration giving a half-maximal response (EC50) was determined as 0.85 nM.

For the compound `COc1cc(OCc2csc(N(C)CCC#N)n2)c2cc(-c3cn4nc(C)ccc4n3)oc2c1` [Example 250], the EC50 stood at 3.6 nM.

For `COc1cc(OCc2csc(-c3cccnc3)n2)c2cc(-c3cn4nc(OC)sc4n3)oc2c1` [Example 82], the EC50 was 0.67 nM.

As to `COc1nn2cc(-c3cc4c(OCc5csc(-c6ccccc6)n5)cccc4o3)nc2s1` [Example 191, 2-Methoxy-6-(4-((2-phenylthiazol-4-yl)methoxy)benzofuran-2-yl)imidazo[2,1-b][1,3,4]thiadiazole], the EC50 was 2.6 nM.

In the case of `COc1cc(OCc2nc(-c3ccc(C(=O)N(C)C)cc3)sc2C)c2cc(-c3cn4nc(C)ccc4n3)oc2c1` [Example 225], the EC50 is 0.54 nM.

For `CCNC(=O)c1ccc(-c2nc(COc3cc(OC)cc4oc(-c5cn6nc(OC)sc6n5)cc34)cs2)cc1` [Example 306], the EC50 is 1.2 nM.

Take `C[C@H](F)c1nn2cc(-c3cc4c(OCc5csc(-c6ccccc6)n5)cc(F)cc4o3)nc2s1` [Example 195]: the EC50 was determined as 1.3 nM.

Regarding `CCC1CCN(c2nc(COc3cc(OC)cc4oc(-c5cn6nc(C)ccc6n5)cc34)cs2)CC1` [Example 271], the EC50 was 1.3 nM.

In the case of `C=C(c1cncnc1)c1nc(COc2cc(OC)cc3oc(-c4cn5nc(OC)sc5n4)cc23)cs1` [Example 178, 2-Methoxy-6-(6-methoxy-4-((2-(1-(pyrimidin-5-yl)vinyl)thiazol-4-yl)methoxy)benzofuran-2-yl)imidazo[2,1-b][1,3,4]thiadiazole], the EC50 came out at 0.87 nM.

With `COc1cc(OCc2nc(-c3ccc(C(=O)N(C)C)cc3)sc2C)c2cc(-c3cn4nc(OC)sc4n3)oc2c1` [Example 66], the concentration giving a half-maximal response (EC50) stood at 0.75 nM.

Take `COc1cc(OCc2csc(C(C)(O)C(F)(F)F)n2)c2cc(-c3cn4nc(OC)sc4n3)oc2c1` (centres unmarked) [Example 143]: the half-maximal effective concentration (EC50) worked out at 0.39 nM.

`COc1cc(OCc2csc(N3CCN(S(=O)(=O)C(C)C)CC3)n2)c2cc(-c3cn4nc(OC)sc4n3)oc2c1` [Example 102, 6-(4-((2-(4-(Isopropylsulfonyl)piperazin-1-yl)thiazol-4-yl)methoxy)-6-methoxybenzofuran-2-yl)-2-methoxyimidazo[2,1-b][1,3,4]thiadiazole]: the 50% effective concentration (EC50) was 2.3 nM.

With `COc1cc(OCc2csc(-c3ccc(F)cc3)n2)c2cc(-c3cn4nc(OC)sc4n3)oc2c1` [Example 15], the half-maximal effective concentration (EC50) turned out to be 0.98 nM.

With `COc1cc(OCc2csc(N3CCN(C4CCOCC4)CC3)n2)c2cc(-c3cn4nc(C)ccc4n3)oc2c1` [Example 286], the 50% effective concentration (EC50) was found to be 110 nM.

With `COc1nn2cc(-c3cc4c(OCc5csc(-c6ccc(C(=O)NCC(F)(F)F)cc6)n5)cc(F)cc4o3)nc2s1` [Example 181, 4-(4-(((6-Fluoro-2-(2-methoxyimidazo[2,1-b][1,3,4]thiadiazol-6-yl)benzofuran-4-yl)oxy)methyl)thiazol-2-yl)-N-(2,2,2-trifluoroethyl)benzamide], the EC50 turned out to be 0.72 nM.

For the compound `COc1cc(OCc2csc(-c3ccccc3F)n2)c2cc(-c3cn4nc(OC)sc4n3)oc2c1` [Example 26], the EC50 is 1.8 nM.

In the case of `COc1cc(OCc2csc(Cl)n2)c2cc(-c3cn4nc(C)ccc4n3)oc2c1` [Example 206, 2-Chloro-4-(((6-methoxy-2-(6-methylimidazo[1,2-b]pyridazin-2-yl)benzofuran-4-yl)oxy)methyl)thiazole], the EC50 amounted to 12 nM.

As to `COc1cc(OCc2nc(N3CCOCC3)sc2Cl)c2cc(-c3cn4nc(OC)sc4n3)oc2c1` [Example 84], the EC50 was 0.97 nM.

As for `COc1cc(OCc2csc(N3CCC(C)CC3)n2)c2cc(-c3cn4nc(C)ccc4n3)oc2c1` [Example 259], the EC50 stood at 0.58 nM.

With `COc1cc(OCc2csc(-c3cccc(F)c3)n2)c2cc(-c3cn4nc(OC)sc4n3)oc2c1` [Example 25], the EC50 was found to be 0.55 nM.

Consider `CCN(CCC#N)C(=O)c1ccc(-c2nc(COc3cc(F)cc4oc(-c5cn6nc(OC)sc6n5)cc34)cs2)cc1` [Example 180, N-(2-Cyanoethyl)-N-ethyl-4-(4-(((6-fluoro-2-(2-methoxyimidazo[2,1-b][1,3,4]thiadiazol-6-yl)benzofuran-4-yl)oxy)methyl)thiazol-2-yl)benzamide], for which the concentration for a half-maximal effect (EC50) was 0.47 nM.

As to `COc1cc(OCc2csc(C3CCOCC3)n2)c2cc(-c3cn4nc(C)ccc4n3)oc2c1` [Example 213], the EC50 was 3.6 nM.

`COc1cc(OCc2nc(-c3ccccc3)sc2C)c2cc(-c3cn4nc(OC)sc4n3)oc2c1` [Example 13]: the EC50 came to 2.1 nM.

Consider `COc1cc(OCc2csc(-c3ccc(F)nc3)n2)c2cc(-c3cn4nc(C)ccc4n3)oc2c1` [Example 228], for which the EC50 is 0.18 nM.

Consider `COc1cc(OCc2csc(-c3cccnc3)n2)c2cc(-c3cn4nc(OC)sc4n3)oc2c1` [Example 30], for which the half-maximal effective concentration (EC50) was determined as 0.65 nM.

Take `COc1nn2cc(-c3cc4c(OCc5csc(-c6ccc(C(=O)N(C)C)cc6)n5)cc(F)cc4o3)nc2s1` [Example 185, 4-(4-(((6-Fluoro-2-(2-methoxyimidazo[2,1-b][1,3,4]thiadiazol-6-yl)benzofuran-4-yl)oxy)methyl)thiazol-2-yl)-N,N-dimethylbenzamide]: the EC50 is 0.41 nM.

On to `COc1cc(OCc2csc(-c3ccc(C(=O)NCCO)cc3)n2)c2cc(-c3cn4nc(OC)sc4n3)oc2c1` [Example 293], for which the EC50 was 0.72 nM.

`COc1cc(OCc2nc(N3CCOCC3)sc2C(C)(C)O)c2cc(-c3cn4nc(OC)sc4n3)oc2c1` [Example 91, 2-(4-(((6-Methoxy-2-(2-methoxyimidazo[2,1-b][1,3,4]thiadiazol-6-yl)benzofuran-4-yl)oxy)methyl)-2-morpholinothiazol-5-yl)propan-2-ol]: the 50% effective concentration (EC50) amounted to 0.27 nM.
